Assay results reported in ChEMBL document CHEMBL1154586, “Two new acetylenic derivatives and a new meroditerpenoid from a Taiwanese marine sponge Strongylophora durissima” (J Nat Prod, 2000).
The source made the active and inactive calls. No cut-off for these calls is given here.

Test system: NUGC
Assay: Cytotoxicity against human NUGC cells at 10 uM
Assay type: functional, cell-based

Row | SMILES | Activity
1 | C#CC(O)/C=C/CCCCCCCCC/C=C\CCCCCCCCC/C=C/C(O)C#C (configuration not stated) | Active
2 | C#CC(O)/C=C/CCCCCCCCCCCCC#CCCCCCCCCCCC#CC#CCO (configuration not stated) | Active
